These results are taken from article PMC11729425 (ACS Pharmacology & Translational Science, 2024).

In one data set the test system is N2 wild-type C. elegans. Nature of the data set: Lifespan measurements in C. elegans. The data set is classed as in vivo, Caenorhabditis elegans. On the procedure:
Lifespan assays were conducted at 20 °C unless otherwise noted. Synchronous populations were generated by hypochlorite treatment of gravid adults to obtain tightly synchronized embryos, which were then allowed to develop into adulthood under defined conditions. 20–25 worms were placed on NGM plates containing 5-FU seeded with E. coli OP50 bacteria. ALT-007 at a final concentration of 5 μM was added to the top of the plates diluted in DMSO, and DMSO was used at the same concentration as a control. Each condition included at least 170 animals per experiment.
The day of egg collection was designated as t = 0. Animals were transferred to fresh plates every 3 days and examined daily for touch-provoked movement and pharyngeal pumping, until death. Worms that died due to internal hatching of eggs, extruded gonads, or desiccation from crawling off the plate were censored accordingly. Each survival assay was repeated at least twice, and figures show representative results.
Survival curves were generated using the Kaplan–Meier product-limit method. The log-rank (Mantel–Cox) test was used to assess differences in survival and calculate P values. Statistical analyses and lifespan values were determined using GraphPad Prism 10 software. Complete lifespan statistics are presented in Supporting Information Table 1.

The subject of data set [1] is Aged C57BL/6J mice. Nature of the data set: Metabolic cages (CLAMS): energy expenditure and activity. In kind it is in vivo, C57BL/6JRj mice. The conditions noted are these: 1 mg/kg in the food, week 19, CLAMS. As for the experimental part: Energy expenditure and activity during day and night were measured using the CLAMS monitoring system (Columbus instruments). Mice were housed in metabolic cages for 48 h.

Data set [2] deals with Aged C57BL/6J mice. As to the kind of experiment: Rotarod test. In kind it is in vivo, C57BL/6JRj mice. To be noted: 1 mg/kg in the food, week 9. On the procedure: The rotarod test assesses muscle strength, coordination, and endurance.[32] Mice were allowed to acclimate in the room for 30 min. […] Each mouse underwent three trials per day for three consecutive days. The latency at which the mouse either reached passive rotation or fell from the rotor was recorded. The results presented here focus on the latency of the best trial conducted on the second day.

The subject of data set [3] is GMC101 and CL2120 amyloid beta expressing animals. As to the kind of experiment: Amyloid beta aggregation in C. elegans (Western blot). In kind it is in vivo, Caenorhabditis elegans. As for the experimental part: Figure 5 ALT-007 increases lifespan, improves healthspan and reduces protein aggregation in C. elegans. (A) Median and maximal lifespan of […]. elegans animals treated with ALT-007 or vehicle (5 μM). N = 2 biological replicates with at least 170 animals per group. (B) Paralysis and movement analysis of amyloid beta (Ab)-expressing animals treated with ALT-007 or vehicle (1 μM) at day 1 of adulthood. N = 2 biological replicates with at least 50 animals per group. (C) Amyloid aggregation upon ALT-007 treatment and DMSO as a control in GMC101 and CL2120 amyloid beta expressing animals and their respective controls. N = 3 biological replicates with at least 100 animals per group. (D) Quantification of amyloid beta (Ab) levels upon ALT-007 treatment. The log-rank (Mantel-Cox) test was used to evaluate differences between survival curves as indicated in Supplementary Table 1. two-tailed t-test was performed for two-group analysis and one-way analysis of variance (ANOVA) for three-group analysis. Sample preparation: Synchronized animal populations were collected and washed in M9 buffer. […] Protein samples were analyzed by Tricine-SDS-polyacrylamide gel electrophoresis (SDS-PAGE) and transferred to nitrocellulose membrane. Proteins were detected using the following antibodies under the manufacturer's conditions: antiβ-actin (Sigma) and antiAmyloid-beta, 1-16 (6E10) (BioLegend).
A general note: A western blot detects proteins with antibodies after separation by electrophoresis.

Data set [4] relates to Aged C57BL/6J mice. Nature of the data set: Oral glucose tolerance test (oGTT) in aged mice. In kind it is in vivo, C57BL/6JRj mice. To be noted: 1 mg/kg in the food, week 17. As for the experimental part:
For OGTT, mice underwent an overnight fast, and on the morning of the experiment, they were administered a gavage consisting of a 20% glucose solution in water (10 mL [2 g]/kg body weight). Blood glucose levels were monitored from the tail vein using a glucometer prior to the gavage and at 15, 30, 45, 60, 90, 120, 150, and 180 min thereafter. Additionally, blood samples were collected at 0 min (pregavage), 15 and 30 min to assess fasting insulin levels and glucose-stimulated insulin secretion. oGTT was performed 17 weeks post experiment onset as indicated in Figure 2A.

With `COc1cc(C(=O)N2CC[C@H](NC(=O)c3ccccc3OC(F)(F)F)c3c2cnn3C(C)C)cnc1OC` [ALT-007], the “toxicity for animal development” value with N2 wild-type C. elegans (C. elegans, administration at the embryo stage) is “nontoxic for animal development”. Besides, in the data set on N2 wild-type C. elegans (N2 wild-type, 5 μM, 20 °C), the maximal lifespan entry was “significantly increased” and the median lifespan result is recorded as “significantly increased”. Moreover, the “energy expenditure (kCal/h) at night” value in the data set with Aged C57BL/6J mice [1] is on record as “significant increase”. For the same compound, the global physical activity result in the data set with Aged C57BL/6J mice [1] (vs aged control) is listed as “completely restored the decline in global physical activity”. Also, in the data set on Aged C57BL/6J mice [2], the “coordination measured by the rotarod test” value was “improved”. Also, the amyloid beta aggregation entry in data set [3] (CL2120 strain (CL2122 as a control)) is recorded as “reduce aggregation”. The amyloid beta aggregates entry in data set [3] (GMC101 worms) is on record as “reducing amyloid beta aggregates”. In addition, the glucose tolerance test entry in the data set with Aged C57BL/6J mice [4] is listed as “no difference”.
